Values of other authors in patent publication US20180169002A1, “Skin Rejuvenation and Defense Systems and Methods” (Maple Mountain Group, Inc., priority 2015, published 2018).

Settings: compared with glycerin

SMILES: NC(=O)NCCO [Hydroxyethyl Urea, Hydroxyethyl urea]
- moisturization efficacy: comparable to the leading benchmark
